Patent US9072756B2, “Methods and compositions for increasing the efficacy of an agent that directly or indirectly affects a muscarinic receptor through administration of a pyrophosphate analog” (HealthPartners Research Foundation, priority 2000, dated 2015)
Read-outs that look alike come from different tables or passages of the source.

Key:
[1] = target: muscarinic acetylcholine receptor (mAChR); test: Protection of mAChR from inactivation by the endogenous LMW inhibitor, [3H]QNB (antagonist) binding; parameters: species or system human; conditions: for EC50: read-out: concentration that provides 50% protection of the mAChR; for protection of the mAChR from inactivation by the LMW inhibitor (in words): FIGS. 4-7, 15, 17, 19
[2] = target: muscarinic acetylcholine receptor (mAChR); test: Protection of mAChR from inactivation by heme and peroxide, [3H]QNB (antagonist) binding; parameters: species or system human; conditions: 3H-QNB binding, FIG. 16
[3] = target: muscarinic acetylcholine receptor (mAChR); conditions: read-out: concentration that provides 50% protection of the mAChR from damage by PbCl2, 3H-QNB binding, FIG. 20
[4] = LMW inhibitor, 3H-QNB binding, FIGS. 11, 13, 14

Compound | EC50 [1, 4] [nM] | protection of the mAChR from inactivation by the LMW inhibitor (in words) ([1]; LMW inhibitor, 3H-QNB binding) | also measured
C=CC1=C(C)/C(=C/C2=NC(=C\c3[nH]c(/C=C4\NC(=O)C(C)=C4C=C)c(C)c3CCC(=O)O)/C(CCC(=O)O)=C2C)NC1=O [biliverdin] | 3000 |  | 
catalase |  | protected the mAChR from inactivation | amount that provided 50% protection from inactivation by heme and peroxide [2]: 0.34 units/mL
O=P(O)(O)OP(=O)(O)O [pyrophosphate] |  |  | EC50 ([1]; inactivation by LMW inhibitor or heme and peroxide, loss of antagonist (3H-QNB) and agonist (3H-Oxotremorine M) binding, FIGS. 1-3, not specified further): ~1000 nM; EC50 [3]: ~57000 nM
O=c1c(O)c(-c2ccc(O)c(O)c2)oc2cc(O)cc(O)c12 [quercetin] | 240 |  | 
O=P(O)(O)OP(=O)(O)OP(=O)(O)O [tripolyphosphate] |  | protect the mAChR from inactivation | 
Nc1ncnc2c1ncn2[C@@H]1O[C@H](COP(=O)(O)OP(=O)(O)NP(=O)(O)O)[C@@H](O)[C@H]1O [adenylylimidodiphosphate] |  | protect the mAChR from inactivation | 
O=c1c(O)c(-c2cc(O)c(O)c(O)c2)oc2cc(O)cc(O)c12 [myricetin] | 400 |  | 
CC(C)c1cc2c(c(O)c1O)[C@@]13CCCC(C)(C)[C@@H]1C[C@@H]2OC3=O [carnosol] |  |  | protection of the mAChR from inactivation ([1]; at 1 μM, LMW inhibitor, 3H-QNB binding, FIG. 12): 100%
